This note sets out measurements from PubChem BioAssay AID200 (DTP/NCI, 2004).

Structures are written as SMILES. “And” between values parts separate entries of the source, which are not always exact repeats. Identical values can stand only once. Toxic doses and inconclusive results are not listed.

This test concerns B6C3F1 mice, B16 melanoma ip, median survival T/C. The experiment in a line: NCI In Vivo Anticancer Drug Screen. Data for tumor model B16 Melanoma (intraperitoneal) in B6C3F1 mice. The note with it: endpoint: median survival time, higher = longer survival. As to the method: The antitumor activity of compounds was measured in mice bearing transplantable tumors. Survival or tumor size were measured and the results are expressed as the measurement made in the treated group (T) divided by the measurement made in the vehicle treated control group (C). The tumor model used in this assay is B16 Melanoma (intraperitoneal) in B6C3F1 mice

Where [1] appears, read: dose: 6.25 mg/kg/injection, schedule: Q01DX009 (ip), vehicle: Klucel (hydroxypropylcellulose) (HPC).
Where [2] appears, read: dose: 12.5 mg/kg/injection, schedule: Q01DX009 (ip), vehicle: Klucel (hydroxypropylcellulose) (HPC).
Where [3] appears, read: dose: 25.0 mg/kg/injection, schedule: Q01DX009 (ip), vehicle: Klucel (hydroxypropylcellulose) (HPC).
The mark [4] stands for this setting: dose: 50.0 mg/kg/injection, schedule: Q01DX009 (ip), vehicle: Klucel (hydroxypropylcellulose) (HPC).
The mark [5] stands for this setting: dose: 3.0 mg/kg/injection, schedule: Q01DX009 (ip), vehicle: Klucel (hydroxypropylcellulose) (HPC).

Turning to `O=C(NO)c1ccc(O)c(O)c1`, the T/C (dose: 22.5 mg/kg/injection, schedule: Q03HX024 (ip), vehicle: water) is 106 % of control; the T/C (dose: 25.0 mg/kg/injection, schedule: Q01DX009 (ip), vehicle: water) is 100 % of control; the T/C (dose: 45.0 mg/kg/injection, schedule: Q03HX024 (ip), vehicle: water) is 111 % of control; the T/C (dose: 50.0 mg/kg/injection, schedule: Q01DX009 (ip), vehicle: water) was 109 % of control and 100 % of control; the T/C (dose: 60.0 mg/kg/injection, schedule: Q01DX009 (ip), vehicle: water) was 110 % of control; the T/C (dose: 90.0 mg/kg/injection, schedule: Q03HX024 (ip), vehicle: water) is 116 % of control. Moreover, the T/C is, setting by setting: (dose: 100.0 mg/kg/injection, schedule: Q01DX009 (ip), vehicle: water) 111 % of control and 116 % of control and 99 % of control; (dose: 116.0 mg/kg/injection, schedule: Q01DX009 (ip), vehicle: other) 116 % of control; (dose: 120.0 mg/kg/injection, schedule: Q01DX009 (ip), vehicle: water) 110 % of control; (dose: 176.0 mg/kg/injection, schedule: Q01DX009 (ip), vehicle: other) 120 % of control; (dose: 176.0 mg/kg/injection, schedule: Q01DX009 (ip), vehicle: water) 120 % of control; (dose: 180.0 mg/kg/injection, schedule: Q03HX024 (ip), vehicle: water) 119 % of control. Besides, the T/C by setting is: (dose: 200.0 mg/kg/injection, schedule: Q01DX009 (ip), vehicle: water) 112 % of control and 123 % of control; (dose: 270.0 mg/kg/injection, schedule: Q03HX024 (ip), vehicle: water) 87 % of control.

Take `COc1cc(C(=O)c2cc3c(cc2C)OCO3)cc(OC)c1OC`: the T/C runs as follows: under setting [1], 94 % of control; under setting [2], 100 % of control; under setting [3], 108 % of control; under setting [4], 117 % of control and 106 % of control.

For `C[C@H]1C[C@@H]2[C@H]([C@@H](O)C[C@@]3(C)[C@H]2CC[C@]3(O)C(=O)CO)[C@@]2(C)C=CC(=O)C=C12`, the T/C runs as follows: under setting [1], 115 % of control and 101 % of control; under setting [2], 110 % of control and 101 % of control; under setting [3], 114 % of control and 107 % of control; under setting [4], 109 % of control and 111 % of control; (dose: 100.0 mg/kg/injection, schedule: Q01DX009 (ip), vehicle: Klucel (hydroxypropylcellulose) (HPC)) 118 % of control and 119 % of control; (dose: 200.0 mg/kg/injection, schedule: Q01DX009 (ip), vehicle: Klucel (hydroxypropylcellulose) (HPC)) 112 % of control and 121 % of control.

Consider `CCCCCCCCCCCCCCCCS(=O)CC(O)COC(=O)c1ccc(C(=O)OCC(O)CS(=O)CCCCCCCCCCCCCCCC)cc1` (configuration not stated), for which the T/C runs as follows: (dose: 12.5 mg/kg/injection, schedule: Q01DX009 (ip), vehicle: saline + alcohol) 100 % of control; (dose: 25.0 mg/kg/injection, schedule: Q01DX009 (ip), vehicle: saline + alcohol) 86 % of control; (dose: 50.0 mg/kg/injection, schedule: Q01DX009 (ip), vehicle: saline + alcohol) 87 % of control.

Take `C/C(=N\N=C(/[Se])N1CC2CCC(CC2)C1)c1ccccn1`: the T/C runs as follows: (dose: 0.75 mg/kg/injection, schedule: Q01DX009 (ip), vehicle: Klucel (hydroxypropylcellulose) (HPC)) 112 % of control and 92 % of control and 108 % of control; (dose: 1.5 mg/kg/injection, schedule: Q01DX009 (ip), vehicle: Klucel (hydroxypropylcellulose) (HPC)) 111 % of control and 99 % of control; under setting [5], 115 % of control and 100 % of control; (dose: 6.0 mg/kg/injection, schedule: Q01DX009 (ip), vehicle: Klucel (hydroxypropylcellulose) (HPC)) 120 % of control and 93 % of control and 100 % of control.

Take `CC1=C[S+](c2ccccc2)c2cccc3cc4ccccc4c1c23` (configuration not stated): the T/C runs as follows: (dose: 0.06 mg/kg/injection, schedule: Q01DX009 (ip), vehicle: saline with Tween-80) 106 % of control; (dose: 0.12 mg/kg/injection, schedule: Q01DX009 (ip), vehicle: saline with Tween-80) 103 % of control; (dose: 0.25 mg/kg/injection, schedule: Q01DX009 (ip), vehicle: saline with Tween-80) 115 % of control; (dose: 0.5 mg/kg/injection, schedule: Q01DX009 (ip), vehicle: saline with Tween-80) 100 % of control; (dose: 1.0 mg/kg/injection, schedule: Q01DX009 (ip), vehicle: saline with Tween-80) 111 % of control; (dose: 2.0 mg/kg/injection, schedule: Q01DX009 (ip), vehicle: saline with Tween-80) 112 % of control and 106 % of control.

Consider `C=Cc1cc(OC)c2c(c1)c(=O)oc1c2cc(OC)c2c(O)ccc(C3OC(C(C)O)C(O)C3O)c21` (configuration not stated), for which the T/C under setting [3] was 165 % of control.

As to `Cc1cc2nc3c(=O)[nH]c(=O)nc-3n(CC(O)C(O)C(O)C(O)CO)c2cc1C` (configuration not stated), the T/C runs as follows: (dose: 25.0 mg/kg/injection, schedule: Q01DX009 (ip), vehicle: suspension in saline) 104 % of control; (dose: 50.0 mg/kg/injection, schedule: Q01DX009 (ip), vehicle: suspension in saline) 111 % of control; (dose: 100.0 mg/kg/injection, schedule: Q01DX009 (ip), vehicle: suspension in saline) 102 % of control; (dose: 200.0 mg/kg/injection, schedule: Q01DX009 (ip), vehicle: suspension in saline) 93 % of control.

As to `COc1c(O)cc2c(c1OC)-c1ccc(SC)c(=O)cc1C(NC(C)=O)CC2` (configuration not stated), the T/C was 160 % of control (dose: 1.25 mg/kg/injection, schedule: Q01DX009 (ip), vehicle: Klucel (hydroxypropylcellulose) (HPC)); 180 % of control and 182 % of control and 186 % of control (dose: 1.8 mg/kg/injection, schedule: Q01DX009 (ip), vehicle: Klucel (hydroxypropylcellulose) (HPC)); 156 % of control and 167 % of control (dose: 2.5 mg/kg/injection, schedule: Q01DX009 (ip), vehicle: Klucel (hydroxypropylcellulose) (HPC)); 178 % of control and 184 % of control and 198 % of control under setting [5]; 180 % of control (dose: 10.0 mg/kg/injection, schedule: Q01DX009 (ip), vehicle: Klucel (hydroxypropylcellulose) (HPC)).

As to `Cc1c(O)ccc(=O)n1O`, the T/C is 101 % of control (dose: 16.0 mg/kg/injection, schedule: Q01DX009 (ip), vehicle: saline with Tween-80); 98 % of control (dose: 32.0 mg/kg/injection, schedule: Q01DX009 (ip), vehicle: saline with Tween-80); 101 % of control (dose: 64.0 mg/kg/injection, schedule: Q01DX009 (ip), vehicle: saline with Tween-80); 104 % of control (dose: 128.0 mg/kg/injection, schedule: Q01DX009 (ip), vehicle: saline with Tween-80).

On to `OC1CC2CCCCC2CC1c1ccccc1` (configuration not stated), for which the T/C is, setting by setting: (dose: 25.0 mg/kg/injection, schedule: Q04DX003 (ip), vehicle: saline with Tween-80) 95 % of control; (dose: 50.0 mg/kg/injection, schedule: Q04DX003 (ip), vehicle: saline with Tween-80) 114 % of control; (dose: 100.0 mg/kg/injection, schedule: Q04DX003 (ip), vehicle: saline with Tween-80) 104 % of control; (dose: 200.0 mg/kg/injection, schedule: Q04DX003 (ip), vehicle: saline with Tween-80) 93 % of control; (dose: 400.0 mg/kg/injection, schedule: Q04DX003 (ip), vehicle: saline with Tween-80) 92 % of control.

For the compound `CN(C)c1ccc2c(NCCCCCCNc3ccnc4cc(N(C)C)ccc34)ccnc2c1`, the T/C was 94 % of control (dose: 1.56 mg/kg/injection, schedule: Q01DX009 (ip), vehicle: distilled water + alcohol); 92 % of control (dose: 3.12 mg/kg/injection, schedule: Q01DX009 (ip), vehicle: distilled water + alcohol); 106 % of control (dose: 6.25 mg/kg/injection, schedule: Q01DX009 (ip), vehicle: distilled water + alcohol); 116 % of control (dose: 12.5 mg/kg/injection, schedule: Q01DX009 (ip), vehicle: distilled water + alcohol); 112 % of control (dose: 25.0 mg/kg/injection, schedule: Q01DX009 (ip), vehicle: distilled water + alcohol).

`Nc1ccc(S(N)(=O)=O)cc1`: the T/C was 94 % of control (dose: 12.5 mg/kg/injection, schedule: Q01DX009 (ip), vehicle: saline with Tween-80); 86 % of control and 99 % of control (dose: 25.0 mg/kg/injection, schedule: Q01DX009 (ip), vehicle: saline with Tween-80); 98 % of control and 100 % of control (dose: 50.0 mg/kg/injection, schedule: Q01DX009 (ip), vehicle: saline with Tween-80); 105 % of control and 108 % of control (dose: 100.0 mg/kg/injection, schedule: Q01DX009 (ip), vehicle: saline with Tween-80); 114 % of control and 101 % of control (dose: 200.0 mg/kg/injection, schedule: Q01DX009 (ip), vehicle: saline with Tween-80); 90 % of control and 99 % of control (dose: 400.0 mg/kg/injection, schedule: Q01DX009 (ip), vehicle: saline with Tween-80).
